Experimental data taken from PubChem BioAssay AID2060327 (Molecular Pharmacology Branch, DTP, NCI, 2025).
Several values for one entry are separate records, joined by “and”; a condition that tells them apart may be missing. Equal values may be shown once.

System: PC-3 multi-cell spheroids, viability
Assay: Anticancer human tumor PC-3 cell line growth inhibition [IpAb];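 note: spheroids exposed to compounds for 7 days before readout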;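 for viability, T/C: 100% = DMSO vehicle control wells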
Settings: for viability, T/C: stronger effect = lower value
Description: Combinatorial screen of targeted agents with ipatasertib and abemaciclib in multi-cell type tumor spheroids
A high-throughput screen of multi-cell type tumor spheroids was designed to identify active combinations of targeted small molecules and ipatasertib or abemaciclib. Complex spheroids include a stromal component modeled by human endothelial cells (HUVEC) and fibroblasts modeled by human mesenchymal stem cells (MSCs). The concentration ranges selected for each drug and investigational agent were based upon clinically achievable concentrations if the clinical Cmax of the agent was known.
Compounds. The drugs and investigational agents: ipatasertib (NSC767898), abemaciclib(NSC768073), selumetinib (NSC741078), trametinib (758246), adavosertib (NSC754352), everolimus (NSC733504), sapanisertib (NSC764658), vemurafenib (NSC761431), venetoclax (NSC766270), copanlisib (NSC809693), apelisib (NSC765974), palbociblib (NSC758247), vemurafenib (NSC761431), dabrafenib (NSC764134), ravoxertinib (NSC781343), BMS-387032 (NSC767048), sotorasib (NSC818433), talazoparib (NSC767125) and afursertib (NSC778305), were obtained from the National Cancer Institute (NCI) Developmental Therapeutics Program Chemical Repository. The FDA-approved anticancer drug set is available from the NCI Developmental Therapeutics Program. […] The stock solutions were prepared in dimethyl sulfoxide (DMSO, Sigma-Aldrich, St. Louis, MO, cat. D2650) at 800-fold the tested concentration and stored at -70 degrees C prior to their use. All drugs and investigational agents were tested over a range starting from a high concentration at or near the clinical Cmax and decreasing in half-log increments. If the clinical Cmax for an agent had not been determined, the highest concentration tested was 10 microM.
NCI60 Cell Culture. NCI60 cell lines were obtained from the NCI Developmental Therapeutics Program Tumor Repository. For each lot of cells, the Repository performed Applied Biosystems AmpFLSTR Identifiler testing with PCR amplification to confirm consistency with the published Identifier STR profile for each cell line. Cells were kept in continuous culture for no more than 20 passages. The optimal seeding densities for each of the cell lines at each time point assessed were determined prior to performing the concentration response studies. Briefly, the NCI60 human tumor lines were grown as monolayers in RPMI 1640 medium supplemented with 10% FBS and 2 mmol/L L-glutamine.
An additional 9 lines were from the NCI60 cell line panel including MDA-MB-231 breast carcinoma, MDA-MB-468 breast carcinoma, MCF7 breast carcinoma, Hs578T breast carcinoma, MALME-3M melanoma, SK-MEL-2 melanoma, SK-OV-3 ovarian carcinoma, DU-145 prostate carcinoma, PC-3 prostate carcinoma, all cell lines along with major genetic alterations are listed on Table 2. Pooled donor human umbilical vein endothelial cells (HUVEC, Lonza, cat. CC-2519) and human mesenchymal stem cells (hMSC, Lonza, cat. PT-2501) were purchased from Lonza (Walkersville, MD).
PDMR cell lines were grown in complete medium (DC medium): Dulbecco's modified Eagle's medium (DMEM)/F12 supplemented with 5% fetal bovine serum (FBS), 2 mM L-glutamine, 100 U/mL penicillin and 100 µg/ml streptomycin, 0.4 µg/ml hydrocortisone, 10 ng/ml epidermal growth factor (EGF) recombinant human protein, 24 µg/mL adenine, and 0.1 mg/mL primocin. During culture from frozen stock vials, PDMR cells were cultured in the same medium containing 10 µM Y-27632 (see Table 3). The PDCs were cultured in complete DMEM/F12 media without 10 microM Y-27632 dihydrochloride for at least two passages prior to the screen. The pooled donor HUVEC and hMSC were cultured in endothelial cell growth medium 2 (PromoCell, Heidelberg, Germany, cat. C-22011) and mesenchymal stem cell growth medium 2 (PromoCell, cat. C-28009), respectively. For all experiments, HUVEC and hMSC were used at passages </=5.
[…]

In the case of `Cc1nc(NC(=O)N2CCCC2C(N)=O)sc1-c1ccnc(C(C)(C)C(F)(F)F)c1` (stereo not given), the viability, T/C (compound 0.0316 µM) is reported as 82.8% and 73.3%, the viability, T/C (compound 0.1 µM) is reported as 78.5% and 59.6% and the viability, T/C (compound 0.316 µM) is reported as 50.1% and 53.2%. For the same compound, the viability, T/C (compound 1 µM) was 49.3% and 48%, the viability, T/C (compound 3.16 µM) was 44% and 47.7% and the viability, T/C (compound 10 µM) was 15.2% and 14.2%. The IC50 (curve of compound) was 0.849 µM and 1.07 µM.
With `Cn1cnc2c(F)c(Nc3ccc(Br)cc3Cl)c(C(=O)NOCCO)cc21` the viability, T/C (compound 0.00949 µM) was 105% and 99.8%, the viability, T/C (compound 0.03 µM) was 113% and 107% and the viability, T/C (compound 0.0949 µM) was 96.4% and 95.3%. The viability, T/C (compound 0.3 µM) was 85.1% and 96%, the viability, T/C (compound 0.949 µM) was 91.9% and 91% and the viability, T/C (compound 3 µM) was 65.1% and 73.2%. For the same compound, the IC50 (curve of compound) was greater than 3 µM.
`Cn1ncc(Cl)c1-c1cc(C(=O)NC(CN)Cc2cccc(F)c2)sc1Cl` (stereo not given) was tested, and the viability, T/C (compound 0.0316 µM) was 89.7% and 88.1%, the viability, T/C (compound 0.1 µM) was 62.9% and 60.5% and the viability, T/C (compound 0.316 µM) was 43.6% and 36.2%. For the same compound, the viability, T/C (compound 1 µM) was 23% and 19.2%, the viability, T/C (compound 3.16 µM) was 17.9% and 16.2% and the viability, T/C (compound 10 µM) was 0.14% and 0.16%. The IC50 (curve of compound) was 0.212 µM and 0.165 µM.
For `Cn1nccc1Nc1nccc(-c2ccn(C(CO)c3ccc(Cl)c(F)c3)c(=O)c2)n1` (stereo not given), the viability, T/C (compound 0.0316 µM) was 98.1% and 104%, the viability, T/C (compound 0.1 µM) was 99.6% and 97.7% and the viability, T/C (compound 0.316 µM) was 90.7% and 104%. The viability, T/C (compound 1 µM) was 119% and 109%, the viability, T/C (compound 3.16 µM) was 125% and 119% and the viability, T/C (compound 10 µM) was 41.7% and 92.9%. The IC50 (curve of compound) was 8.63 µM and > 10 µM.
With `Cn1ncnc1[C@H]1c2n[nH]c(=O)c3cc(F)cc(c23)N[C@@H]1c1ccc(F)cc1` the viability, T/C (compound 0.000316 µM) was 96.7% and 95.8%, the viability, T/C (compound 0.001 µM) was 87.8% and 95.3% and the viability, T/C (compound 0.00316 µM) was 74.8% and 63%. The viability, T/C (compound 0.01 µM) was 53.3% and 58.5%, the viability, T/C (compound 0.0316 µM) was 43.7% and 50.4% and the viability, T/C (compound 0.1 µM) was 43.8% and 39%. The IC50 (curve of compound) was 0.0163 µM and 0.0191 µM.
`Cn1cnc2c(F)c(Nc3ccc(Br)cc3Cl)c(C(=O)NOCCO)cc21` + CC(C)NCC(C(=O)N1CCN(c2ncnc3c2C(C)CC3O)CC1)c1ccc(Cl)cc1 gave an IC50 (curve of first compound, second compound 0.1 µM) greater than 3 µM, an IC50 (curve of first compound, second compound 0.316 µM) of less than 0.00949 µM and an IC50 (curve of first compound, second compound 1 µM) of less than 0.00949 µM. For the same compound, the IC50 (curve of first compound, second compound 3.16 µM) was less than 0.00949 µM, the IC50 (curve of first compound, second compound 10 µM) was less than 0.00949 µM and the viability, T/C (second compound 0.1 µM, first compound 0.00949 µM) was 83.2%. For the same compound, the viability, T/C (second compound 0.1 µM, first compound 0.03 µM) was 73.6%, the viability, T/C (second compound 0.1 µM, first compound 0.0949 µM) was 88.3% and the viability, T/C (second compound 0.1 µM, first compound 0.3 µM) was 78.9%. For the same compound, the viability, T/C (second compound 0.1 µM, first compound 0.949 µM) was 70%, the viability, T/C (second compound 0.1 µM, first compound 3 µM) was 55.6% and the viability, T/C (second compound 0.316 µM, first compound 0.00949 µM) was 46.5%. It also gave a viability, T/C (second compound 0.316 µM, first compound 0.03 µM) of 45%, a viability, T/C (second compound 0.316 µM, first compound 0.0949 µM) of 47.3% and a viability, T/C (second compound 0.316 µM, first compound 0.3 µM) of 44.5%. The viability, T/C (second compound 0.316 µM, first compound 0.949 µM) was 45%, the viability, T/C (second compound 0.316 µM, first compound 3 µM) was 37.1% and the viability, T/C (second compound 1 µM, first compound 0.00949 µM) was 25.6%. It also gave a viability, T/C (second compound 1 µM, first compound 0.03 µM) of 27.1%, a viability, T/C (second compound 1 µM, first compound 0.0949 µM) of 24.1% and a viability, T/C (second compound 1 µM, first compound 0.3 µM) of 20.8%. For the same compound, the viability, T/C (second compound 1 µM, first compound 0.949 µM) was 19.9%, the viability, T/C (second compound 1 µM, first compound 3 µM) was 17.6% and the viability, T/C (second compound 3.16 µM, first compound 0.00949 µM) was 8.45%. The viability, T/C (second compound 3.16 µM, first compound 0.03 µM) was 6.53%, the viability, T/C (second compound 3.16 µM, first compound 0.0949 µM) was 7.72% and the viability, T/C (second compound 3.16 µM, first compound 0.3 µM) was 7.02%. For the same compound, the viability, T/C (second compound 3.16 µM, first compound 0.949 µM) was 8%, the viability, T/C (second compound 3.16 µM, first compound 3 µM) was 6.09% and the viability, T/C (second compound 10 µM, first compound 0.00949 µM) was 12.9%. For the same compound, the viability, T/C (second compound 10 µM, first compound 0.03 µM) was 12.2%, the viability, T/C (second compound 10 µM, first compound 0.0949 µM) was 11.5% and the viability, T/C (second compound 10 µM, first compound 0.3 µM) was 12.1%. The viability, T/C (second compound 10 µM, first compound 0.949 µM) was 11.4% and the viability, T/C (second compound 10 µM, first compound 3 µM) was 10.7%.
